The text below walks through data of article doi:10.1101/2025.10.10.681657 (bioRxiv, 2025).

The test system of assay [1] is NHP2L1 (Snu13) and U4 5′ SL. Also on record: method as in PMID 28985478. The conditions noted are these: cited from earlier work.
In assay [2] the test system is Snu13-U4/U6 RNA interaction. Kind of assay: KD shift assay by MST (protein-RNA inhibition). Format: binding, yeast. The conditions noted are these: 10 μM compound vs no compound. The protocol:
(§1) MST experiments were conducted using a Monolith NT.115 system (NanoTemper, Germany) as described previously.[36] 5′-Cy5-labeled U4/U6 RNA was folded as above-mentioned and diluted to 100 nM (2x) in a working buffer. For RNA-small molecule interactions, compounds were prepared in the running buffer (with 10% DMSO) and mixed with RNA in a 1:1 (v/v) ratio, resulting in 50 nM RNA and 5% DMSO in the final solution. Then, MST scanning was performed in triplicate using a red LED channel to obtain the binding signals. Binding affinity (KD) was determined by fitting the concentration-dependent curve in the T-jump region according to the 1:1 Langmuir binding model (MO.Affinity Analysis v2.3).
For the protein-RNA inhibition assay, Snu13 protein was prepared in the running buffer (10 mM HEPES, pH 7.4, 150 mM NaCl, and 0.005% Tween 20) at different concentrations ranging from 0 μM to 5 μM. Meanwhile, a compound at a designated concentration was added to the annealed RNA solution. Then, the test solutions were prepared by 1:1 (v/v) mixing the protein and RNA-small molecule samples, followed by the standard MST procedure mentioned above.

For assay [3], the system named is U4/U6 snRNA construct 92 nt (WT, No. 1), Cy5 (RNA, junction) GGCCUUAUGCACGGGAAAUACGCAUAUCAGUGAGGAUUCGUCCGAGAUUGUGUUUUUGCUGGUGUAAAUCAGCAGUUCCCCUGCAUAAGGCU
Kind of assay: MST (T-jump, 1:1 fit). Conditions: running buffer, 5% DMSO, 50 nM RNA.

Assay [4] has as its system U4/U6 snRNA construct 79 nt (No. 2, K-turn disrupted) (RNA, junction) GGCCUUAUGCACGGGAAAUACGCAUAUCGUAAGAUUGUGUUUUUGCUGGUGUAAAUCAGCAGUUCCCCUGCAUAAGGCU
As to the kind of experiment: SPR. Conditions: 1x PBS; pH 7.4, 0.005% Tween 20, 5% DMSO; no binding up to 50 μM.

For assay [5], the system named is U4/U6 snRNA construct 92 nt (WT, No. 1) (RNA, junction) GGCCUUAUGCACGGGAAAUACGCAUAUCAGUGAGGAUUCGUCCGAGAUUGUGUUUUUGCUGGUGUAAAUCAGCAGUUCCCCUGCAUAAGGCU
As to the kind of experiment: SPR steady state. The conditions noted are these: 1x PBS; pH 7.4, 0.005% Tween 20, 5% DMSO.

The subject of assay [6] is Snu13-U4/U6 RNA interaction. Kind of assay: EMSA of Snu13-U4/U6 RNA complex. Type of assay: biochemical, yeast. Conditions: 1 μM Snu13, compound 0.5 to 20 μM, gel band quantification; read-out: IC50 (RNA-protein complex formation). The protocol:
The 5′-end Cy5 labeled U4U6 RNA in 11.25 mM KPO4 pH 7.0, 310 mM KCl, and 5 mM EDTA was folded based on the above-mentioned method. The folded RNA was incubated with 1 μM Snu13 protein in the buffer containing 20 mM Tris-Cl pH 7.6, 150 mM NaCl, and 0.1% of Triton X-100 and 2 mM DTT for 30 min at room temperature. Then the compound (0.5 μM to 20 μM) was added to the samples and incubated at room temperature for 15 min. The samples were loaded into the 8% native PAGE gel and visualized by AMERSHAM TYPHOON Biomolecular Imager. Image J software was used for image processing. RNA-protein complex formation in the presence of increasing concentration of compound 22 was calculated by quantifying the higher molecular weight band intensity and normalized to the band intensity of RNA-protein complex in the absence of compound. Values reported are the average of three replicates. The half-maximal inhibitory concentration (IC50) was determined by fitting the data in inhibitor dose–response curves in GraphPad Prism 9. Quantitative data were presented as the mean ± SEM.
(In EMSA bound probe runs differently from free probe, usually more slowly.)

The subject of assay [7] is U4/U6 79-nt snRNA construct. As to the kind of experiment: SPR binding test with 79 nt RNA lacking the K-turn. More on the design: species or system yeast. The conditions noted are these: 79 nt RNA that disrupts the 5′ SL; until 50 μM. The protocol: SPR experiments were carried out using an SPR optical biosensor (BIAcore 3000, Cytiva, USA) based on reported methods with minor modifications.[35] To avoid RNA degradation during long-time injections, the whole microfluidic system was washed by priming 50% RNase Zap buffer and RNase-free water one day before the experiments. Then, by using running buffer (1xPBS, pH7.4, 0.005% Tween 20, 5% DMSO) at a flow rate of 5 μL/min, the binding assays were performed. In brief, a CM5 chip surface coated with carboxylated dextran was activated by standard EDC/NHS amine-coupling protocol and then conjugated with streptavidin (200 ng/mL in 10 mM sodium acetate buffer, pH 4.5) for 30 min, resulting in 4000~6000 response units (RUs) signal. After streptavidin conjugation, the surface was deactivated (1 M ethanolamine, pH 8.5) for 10 min and regenerated (10 mM NaOH) for 2 min to remove unbound SA. […]
To detect binding between small molecules and U4/U6 snRNA, a 50 μL compound solution was applied to both Fc1 and Fc2 channels simultaneously at a higher flow rate (25 μL/min). […] The KD value was then calculated by fitting the binding curves based on a steady-state model in BIAevaluation 4.0 software and plotted in GraphPad Prism 9.
In general terms: Surface plasmon resonance follows binding to a sensor surface in real time, without labels.

Assay [8] deals with U4/U6 snRNA construct 92 nt (WT, No. 1), Cy5 (RNA, junction) GGCCUUAUGCACGGGAAAUACGCAUAUCAGUGAGGAUUCGUCCGAGAUUGUGUUUUUGCUGGUGUAAAUCAGCAGUUCCCCUGCAUAAGGCU
Kind of assay: EMSA. The conditions noted are these: 150 mM NaCl; 20 mM Tris-Cl pH 7.6, 0.1% Triton X-100, 2 mM DTT; 1 μM Snu13 protein displaced.

The target in assay [9] is U4/U6 92-nt RNA construct. Kind of assay: MST binding to U4/U6 92-nt RNA. More on the design: species or system yeast. Conditions: 50 nM Cy5-labeled 92-nt RNA. The protocol:
as §1

Assay [10] deals with U4/U6 snRNA construct (92 nt). Kind of assay: SPR binding to U4/U6 snRNA construct (92 nt). More on the design: species or system yeast. Conditions: 92 nt RNA, steady-state fit; >100 = signal appeared at 100 μM but failed to fit. The protocol: SPR experiments were carried out using an SPR optical biosensor (BIAcore 3000, Cytiva, USA) based on reported methods with minor modifications.[35] To avoid RNA degradation during long-time injections, the whole microfluidic system was washed by priming 50% RNase Zap buffer and RNase-free water one day before the experiments. Then, by using running buffer (1xPBS, pH7.4, 0.005% Tween 20, 5% DMSO) at a flow rate of 5 μL/min, the binding assays were performed. In brief, a CM5 chip surface coated with carboxylated dextran was activated by standard EDC/NHS amine-coupling protocol and then conjugated with streptavidin (200 ng/mL in 10 mM sodium acetate buffer, pH 4.5) for 30 min, resulting in 4000~6000 response units (RUs) signal. After streptavidin conjugation, the surface was deactivated (1 M ethanolamine, pH 8.5) for 10 min and regenerated (10 mM NaOH) for 2 min to remove unbound SA. Then, the folded U4/U6 RNA with biotin-label at 5′ end was prepared (according to the above-mentioned method) at 5 μM and injected in flow-cell (Fc) 2 for 30 min while Fc1 was kept blank as a reference. Then, the system continued flowing the running buffer until the baseline was stable before future steps.
To detect binding between small molecules and U4/U6 snRNA, a 50 μL compound solution was applied to both Fc1 and Fc2 channels simultaneously at a higher flow rate (25 μL/min). The binding curve contains 120 s association and 200 s dissociation. A pulse of 10 mM NaOH injection was used for regeneration if needed. To measure the dissociation constant (KD), titrations of compound solutions with a serial dilution were applied. The KD value was then calculated by fitting the binding curves based on a steady-state model in BIAevaluation 4.0 software and plotted in GraphPad Prism 9.

Assay [11] has as its system U4U6 RNA for SHAPE-MaP (T7 transcript of Template) (RNA, junction) GGGCCUUCGGGCCAAGGCCUUAUGCACGGGAAAUACGCAUAUCAGUGAGGAUUCGUCCGAGAUUGUGUUUUUGCUGGUGUAAAUCAGCAGUUCCCCUGCAUAAGGCUUCGAUCCGGUUCGCCGGAUCCAAAUCGGGCUUCGGUCCGGUUC
As to the kind of experiment: SHAPE-MaP / deltaSHAPE (2A3). The conditions noted are these: KCl (3.3x folding buffer: 1023 mM); potassium phosphate pH 7.0, EDTA; 100 μM compound.

“Also recorded” adds a separate entry of the source.

As for `CC[C@@]1(O)C(=O)OCc2c1cc1n(c2=O)Cc2cc3c(CN(C)C)c(O)ccc3nc2-1` [topotecan], the “effect on NHP2L1-U4 5′ SL interaction” value in [1] was “inhibit the interaction; also recorded: disrupts the binding”.
Broadly, the KD is the equilibrium constant for the complex coming apart. Low values mean a tighter complex, high ones a looser complex. Broadly, the IC50 is the concentration that gives 50% inhibition. Usually Kd stands for a measure of binding affinity in units of concentration. For the compound `CN(C)CCNc1nnc(-c2nc(-c3ccc(F)cc3)no2)c2ccccc12` [Compound 22], in [2], the “fold weaker Snu13 affinity” value was found to be 13 fold. Besides, the results for the KD in assay [3] and in [5] were 9.1 ± 0.6 µM and 3.9 ± 2.2 µM, respectively. Also, the results for the binding result in assay [4] and in assay [11] were “no” and “yes”, respectively. The IC50 in assay [6] and in [8] was 3.2 ± 0.4 µM each time. Besides, in assay [7], the “SPR binding to 79 nt RNA” value is given as “did not show any binding”. Besides, the results for the Kd in assay [9] and in [10] were 9.1 ± 0.6 µM and 3.9 ± 2.2 µM, respectively.
